Test results: patent US10798941B2, “Microbiocidal oxadiazole derivatives” (SYNGENTA PARTICIPATIONS AG, priority 2016, dated 2020)

Experiments:
[1] = test system: Puccinia recondita f. Sp. Tritici; assay: Puccinia recondita f. sp. tritici / wheat / leaf disc preventative (brown rust); assay type: in vivo; conditions: foliar, 168 h, 200 ppm in the applied formulation, wheat leaf segments cv. Kanzler, preventative, inoculated 1 day after application, assessed 7 to 9 days after application, vs untreated, read-out: disease control
Procedure, shortened: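 Wheat cv. Kanzler leaf segments on agar were sprayed with formulated compound in water, then inoculated with spores 1 day later. Incubated at 19° C, 75% rh, 12 h light/12 h dark; percent disease control versus untreated scored 7 to 9 days after application.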

[2] = test system: Puccinia recondita f. Sp. Tritici; assay: Puccinia recondita f. sp. tritici / wheat / leaf disc curative (brown rust); assay type: in vivo; conditions: foliar, 144 h, 200 ppm in the applied formulation, wheat leaf segments cv. Kanzler, applied 1 day after inoculation, assessed 6 to 8 days after application, vs untreated, read-out: disease control
Procedure, shortened: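 Spray application came one day after spore inoculation of Kanzler wheat leaf segments kept on agar. Conditions: 19° C, 75% relative humidity, dark before treatment and 12 h light/12 h dark after. Efficacy = % disease control compared with untreated, 6–8 days post-application.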

Phakopsora pachyrhizi = Phakopsora pachyrhizi / soybean / leaf disc preventative (Asian soybean rust); assay type: in vivo; conditions: foliar, 288 h, 200 ppm in the applied formulation, soybean leaf disks, inoculated one day after application, assessed 12 to 14 days after application, vs untreated, read-out: disease control
Protocol: Leaf disks or leaf segments of various plant species are cut from plants grown in a greenhouse. The cut leaf disks or segments are placed in multiwell plates (24-well format) onto water agar. The leaf disks are sprayed with a test solution before (preventative) or after (curative) inoculation. Compounds to be tested are prepared as DMSO solutions (max. 10 mg/ml) which are diluted to the appropriate concentration with 0.025% Tween20 just before spraying. The inoculated leaf disks or segments are incubated under defined conditions (temperature, relative humidity, light, etc.) according to the respective test system. A single evaluation of disease level is carried out 3 to 14 days after inoculation, depending on the pathosystem. Percent disease control relative to the untreated check leaf disks or segments is then calculated.
Soybean leaf disks are placed on water agar in multiwell plates (24-well format) and sprayed with the formulated test compound diluted in water. One day after application leaf discs are inoculated by spraying a spore suspension on the lower leaf surface. After an incubation period in a climate cabinet of 24-36 hours in darkness at 20° C. and 75% rh leaf disc are kept at 20° C. with 12 h light/day and 75% rh. The activity of a compound is assessed as percent disease control compared to untreated when an appropriate level of disease damage appears in untreated check leaf disks (12 to 14 days after application).
The following compounds at 200 ppm in the applied formulation give at least 80% disease control in this test when compared to untreated control leaf disks under the same conditions, which show extensive disease development.

[3] = test system: Glomerella Lagenarium (Colletotrichum Lagenarium); assay: Glomerella lagenarium (Colletotrichum lagenarium) liquid culture / cucumber / preventative (anthracnose); assay type: cell-based; conditions: Colletotrichum orbiculare; 20 ppm in the applied formulation; liquid culture in PDB, 24° C., inhibition of growth measured photometrically 3 to 4 days after application, vs untreated; read-out: disease control
Procedure, shortened: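 Conidia from cryogenic storage were mixed into potato dextrose broth. This was added to compound diluted from DMSO into 0.025% Tween20, tested at 20 ppm. Plates were incubated in the dark at 24 °C and 96% relative humidity, and growth was read photometrically after 2–7 days as % activity versus untreated check.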

COC(=O)c1ncnn1Cc1ccc(-c2noc(C(F)(F)F)n2)cc1 [Compound 1.36, methyl 2-[[4-[5-(trifluoromethyl)-1,2,4-oxadiazol-3-yl]phenyl]methyl]-1,2,4-triazole-3-carboxylate]
≥ 80%: pest or weed control at 200 ppm [1] | pest or weed control at 200 ppm [2] | pest or weed control at 200 ppm (Phakopsora pachyrhizi) | inhibition of growth at 20 ppm [3]

N#Cc1ncn(Cc2ccc(-c3noc(C(F)(F)F)n3)cc2)n1 [Compound 1.40, 1-[[4-[5-(trifluoromethyl)-1,2,4-oxadiazol-3-yl]phenyl]methyl]-1,2,4-triazole-3-carbonitrile]
≥ 80%: pest or weed control at 200 ppm [1] | pest or weed control at 200 ppm [2] | pest or weed control at 200 ppm (Phakopsora pachyrhizi) | inhibition of growth at 20 ppm [3]

COc1ccc(C(C)c2ccc(-c3noc(C(F)(F)F)n3)cc2)cn1 (centres unmarked) [Compound 1.42, 3-[4-[1-(6-methoxy-3-pyridyl)ethyl]phenyl]-5-(trifluoromethyl)-1,2,4-oxadiazole]
≥ 80%: pest or weed control at 200 ppm [1] | pest or weed control at 200 ppm [2] | pest or weed control at 200 ppm (Phakopsora pachyrhizi) | inhibition of growth at 20 ppm [3]

COC(=O)c1ncn(Cc2ccc(-c3noc(C(F)(F)F)n3)cc2)c1C(=O)OC [Compound 1.43, dimethyl 1-[[4-[5-(trifluoromethyl)-1,2,4-oxadiazol-3-yl]phenyl]methyl]imidazole-4,5-dicarboxylate]
≥ 80%: pest or weed control at 200 ppm [1] | pest or weed control at 200 ppm [2] | pest or weed control at 200 ppm (Phakopsora pachyrhizi) | inhibition of growth at 20 ppm [3]

FC(F)(F)c1nc(-c2ccc(Cn3ccnc3Br)cc2)no1 [Compound 1.49, 3-[4-[(2-bromoimidazol-1-yl)methyl]phenyl]-5-(trifluoromethyl)-1,2,4-oxadiazole]
≥ 80%: pest or weed control at 200 ppm [1] | pest or weed control at 200 ppm [2] | pest or weed control at 200 ppm (Phakopsora pachyrhizi) | inhibition of growth at 20 ppm [3]

CC(C)c1nccn1Cc1ccc(-c2noc(C(F)(F)F)n2)cc1 [Compound 1.56, 3-[4-[(2-isopropylimidazol-1-yl)methyl]phenyl]-5-(trifluoromethyl)-1,2,4-oxadiazole]
≥ 80%: pest or weed control at 200 ppm [1] | pest or weed control at 200 ppm [2] | pest or weed control at 200 ppm (Phakopsora pachyrhizi) | inhibition of growth at 20 ppm [3]

FC(F)(F)c1nc(-c2ccc(Cn3cnc(Br)c3)cc2)no1 [Compound 1.79, 3-[4-[(4-bromoimidazol-1-yl)methyl]phenyl]-5-(trifluoromethyl)-1,2,4-oxadiazole]
≥ 80%: pest or weed control at 200 ppm [1] | pest or weed control at 200 ppm [2] | pest or weed control at 200 ppm (Phakopsora pachyrhizi) | inhibition of growth at 20 ppm [3]

O=Cc1ccn(Cc2ccc(-c3noc(C(F)(F)F)n3)cc2)n1 [Compound 1.85, 1-[[4-[5-(trifluoromethyl)-1,2,4-oxadiazol-3-yl]phenyl]methyl]pyrazole-3-carbaldehyde]
≥ 80%: pest or weed control at 200 ppm [1] | pest or weed control at 200 ppm [2] | pest or weed control at 200 ppm (Phakopsora pachyrhizi) | inhibition of growth at 20 ppm [3]

FC(F)(F)c1nc(-c2ccc(Cn3cc4ccccc4n3)cc2)no1 [Compound 1.86, 3-[4-(indazol-2-ylmethyl)phenyl]-5-(trifluoromethyl)-1,2,4-oxadiazole]
≥ 80%: pest or weed control at 200 ppm [1] | pest or weed control at 200 ppm [2] | pest or weed control at 200 ppm (Phakopsora pachyrhizi) | inhibition of growth at 20 ppm [3]

FC(F)(F)c1nc(-c2ccc(Cn3ncc4ccccc43)cc2)no1 [Compound 1.87, 3-[4-(indazol-1-ylmethyl)phenyl]-5-(trifluoromethyl)-1,2,4-oxadiazole]
≥ 80%: pest or weed control at 200 ppm [1] | pest or weed control at 200 ppm [2] | pest or weed control at 200 ppm (Phakopsora pachyrhizi) | inhibition of growth at 20 ppm [3]

COC(=O)c1cn(Cc2ccc(-c3noc(C(F)(F)F)n3)cc2)cn1 [Compound 1.88, methyl 1-[[4-[5-(trifluoromethyl)-1,2,4-oxadiazol-3-yl]phenyl]methyl]imidazole-4-carboxylate]
≥ 80%: pest or weed control at 200 ppm [1] | pest or weed control at 200 ppm [2] | pest or weed control at 200 ppm (Phakopsora pachyrhizi) | inhibition of growth at 20 ppm [3]

FC(F)(F)c1cn(Cc2ccc(-c3noc(C(F)(F)F)n3)cc2)cn1 [Compound 1.90]
≥ 80%: pest or weed control at 200 ppm [1] | pest or weed control at 200 ppm [2] | pest or weed control at 200 ppm (Phakopsora pachyrhizi) | inhibition of growth at 20 ppm [3]

Cc1nc(Br)cn1Cc1ccc(-c2noc(C(F)(F)F)n2)cc1 [Compound 1.91, 3-[4-[(4-bromo-2-methyl-imidazol-1-yl)methyl]phenyl]-5-(trifluoromethyl)-1,2,4-oxadiazole]
≥ 80%: pest or weed control at 200 ppm [1] | pest or weed control at 200 ppm [2] | pest or weed control at 200 ppm (Phakopsora pachyrhizi) | inhibition of growth at 20 ppm [3]

Cc1cc(C#N)nn1Cc1ccc(-c2noc(C(F)(F)F)n2)cc1 [Compound 1.93, 5-methyl-1-[[4-[5-(trifluoromethyl)-1,2,4-oxadiazol-3-yl]phenyl]methyl]pyrazole-3-carbonitrile]
≥ 80%: pest or weed control at 200 ppm [1] | pest or weed control at 200 ppm [2] | pest or weed control at 200 ppm (Phakopsora pachyrhizi) | inhibition of growth at 20 ppm [3]

CC(=O)NCCc1cn(Cc2ccc(-c3noc(C(F)(F)F)n3)cc2)cn1 [Compound 1.156, N-[2-[1-[[4-[5-(trifluoromethyl)-1,2,4-oxadiazol-3-yl]phenyl]methyl]imidazol-4-yl]ethyl]acetamide]
≥ 80%: pest or weed control at 200 ppm [1] | pest or weed control at 200 ppm [2] | pest or weed control at 200 ppm (Phakopsora pachyrhizi)

Cc1cc(O)nn1Cc1ccc(-c2noc(C(F)(F)F)n2)cc1 [Compound 1.171, 5-methyl-1-[[4-[5-(trifluoromethyl)-1,2,4-oxadiazol-3-yl]phenyl]methyl]pyrazol-3-ol]
≥ 80%: pest or weed control at 200 ppm [1] | pest or weed control at 200 ppm (Phakopsora pachyrhizi) | inhibition of growth at 20 ppm [3]

CCOC(=O)c1cc(C2CC2)n(Cc2ccc(-c3noc(C(F)(F)F)n3)cc2)n1 [Compound 1.186, ethyl 5-cyclopropyl-1-[[4-[5-(trifluoromethyl)-1,2,4-oxadiazol-3-yl]phenyl]methyl]pyrazole-3-carboxylate]
≥ 80%: pest or weed control at 200 ppm [1] | pest or weed control at 200 ppm (Phakopsora pachyrhizi) | inhibition of growth at 20 ppm [3]

COC(=O)c1cccc2c1cnn2Cc1ccc(-c2noc(C(F)(F)F)n2)cc1 [Compound 1.193, methyl 1-[[4-[5-(trifluoromethyl)-1,2,4-oxadiazol-3-yl]phenyl]methyl]indazole-4-carboxylate]
≥ 80%: pest or weed control at 200 ppm [1] | pest or weed control at 200 ppm (Phakopsora pachyrhizi) | inhibition of growth at 20 ppm [3]

CCOC(=O)c1cn(Cc2ccc(-c3noc(C(F)(F)F)n3)cc2)nc1C(F)F [Compound 1.204, ethyl 3-(difluoromethyl)-1-[[4-[5-(trifluoromethyl)-1,2,4-oxadiazol-3-yl]phenyl]methyl]pyrazole-4-carboxylate]
≥ 80%: pest or weed control at 200 ppm [1] | pest or weed control at 200 ppm (Phakopsora pachyrhizi) | inhibition of growth at 20 ppm [3]

FC(F)(F)c1nc(-c2ccc(Cn3cnc(SCc4ccccc4)n3)cc2)no1 [Compound 1.212, 3-[4-[(3-benzylsulfanyl-1,2,4-triazol-1-yl)methyl]phenyl]-5-(trifluoromethyl)-1,2,4-oxadiazole]
≥ 80%: pest or weed control at 200 ppm [1] | pest or weed control at 200 ppm (Phakopsora pachyrhizi) | inhibition of growth at 20 ppm [3]

CCCc1c(C(=O)OCC)ncn1Cc1ccc(-c2noc(C(F)(F)F)n2)cc1 [Compound 1.224, ethyl 5-propyl-1-[[4-[5-(trifluoromethyl)-1,2,4-oxadiazol-3-yl]phenyl]methyl]imidazole-4-carboxylate]
≥ 80%: pest or weed control at 200 ppm [1] | pest or weed control at 200 ppm (Phakopsora pachyrhizi) | inhibition of growth at 20 ppm [3]

N#Cc1nnn(Cc2ccc(-c3noc(C(F)(F)F)n3)cc2)c1-c1c(F)cccc1F [Compound 1.240, 5-(2,6-difluorophenyl)-1-[[4-[5-(trifluoromethyl)-1,2,4-oxadiazol-3-yl]phenyl]methyl]triazole-4-carbonitrile]
≥ 80%: pest or weed control at 200 ppm [1] | pest or weed control at 200 ppm (Phakopsora pachyrhizi) | inhibition of growth at 20 ppm [3]
